Laboratory results taken from patent publication US20220324860A1, “SUBSTITUTED PYRAZOLO[4,3-b]PYRIDINES AND THEIR USE AS GLUN2B RECEPTOR MODULATORS” (JANSSEN PHARMACEUTICA NV, priority 2019, published 2022).

Experiment: Liver microsomal stability (extraction ratio)
Type: in vitro ADME
Settings: test compound 1 μM; 0.5 mg/mL liver microsomes, NADPH 1 mM, 37° C.; predicted hepatic clearance (well-stirred model) divided by species blood flow; species not given
Experimental: Protocol for Liver Microsomal Stability (Extraction Ratio)
Liver Microsomal Stability. Microsomal stability studies (Chrovian et al, “1H-Pyrrolo[3,2-b]pyridine GluN2B-Selective Negative Allosteric Modulators”. ACS Med Chem Lett. 2019 Jan. 10; 10(3):261-266) were conducted on a Biomek® FX Robotic Liquid Handling Workstation (Beckman Coulter, Brea, Calif.), which consists of a 96-channel pipette head, a 12-position workstation deck, and a plate incubator. Test compounds (1 μM) were spiked in a reaction mix consisting of 100 mM potassium phosphate buffer (pH 7.4), 3 mM MgCl2, and 0.5 mg/mL liver microsomes from mouse, rat, and human (BD Gentest). The reaction was brought to 37° C. and initiated by adding NADPH to a final concentration of 1 mM. After mixing on the plate deck, 50 μL aliquots were excised from the reaction plate at 0, 5, 10, 20, 40, and 60 min and quenched with four volumes of acetonitrile spiked with […] of the internal standard phenytoin. Quenched plates were centrifuged at 5700 rpm for 10 min at 4° C., and supernatant was diluted 1:3 in water before LC/MS/MS analysis. The compound half-lives were derived from plots of the ln of percent remaining compound over time to determine the intrinsic clearance. The predicted hepatic clearance was derived from the intrinsic clearance value using equations from the well-stirred model (Current Drug Metabolism, 2008, 9, 940-951), where no correction was made plasma protein binding and the blood to plasma concentration ratio was assumed to be one. The extraction ratio (ER) was calculated by dividing the predicted hepatic clearance by species blood flow (Q), where Q is 90, 55, and 21.7 mL/min/kg for mouse, rat and human, respectively.

Extraction Ratio @ 1 μM	SMILES
0.50	CC[S+]([O-])Cn1ncc2ncc(-c3cccc(C(F)(F)F)c3F)cc21 (racemic) [Example 86, (RS)-1-(Ethylsulfinylmethyl)-6-[2-fluoro-3-(trifluoromethyl)phenyl]pyrazolo[4,3-b]pyridine]
0.58	CCN1CC(Cn2ncc3ncc(-c4ccc(F)c(C(F)F)c4)cc32)OC1=O (racemic) [Example 131, (RS)-5-[[6-[3-(Difluoromethyl)-4-fluoro-phenyl]pyrazolo[4,3-b]pyridin-1-yl]methyl]-3-ethyl-oxazolidin-2-one]
0.46	CC[S+]([O-])Cn1ncc2ncc(-c3ccc(F)c(C(F)F)c3)cc21 (single isomer, unassigned) [Example 85, (R*)-6-(3-(Difluoromethyl)-4-fluorophenyl)-1-((ethylsulfinyl)methyl)-1H-pyrazolo[4,3-b]pyridine]
0.66	CCC(=O)Cn1ncc2ncc(-c3ccc(F)c(C(F)F)c3)cc21 [Example 4, 1-[6-[3-(Difluoromethyl)-4-fluoro-phenyl]pyrazolo[4,3-b]pyridin-1-yl]butan-2-one]
0.64	CC(=O)Cn1ncc2ncc(-c3ccc(F)c(OC(F)F)c3)cc21 [Example 25, 1-[6-[3-(Difluoromethoxy)-4-fluoro-phenyl]pyrazolo[4,3-b]pyridin-1-yl]propan-2-one]
0.72	CCC(=O)Cn1nc(C)c2ncc(-c3ccc(F)c(C(F)F)c3)cc21 [Example 36, 1-(6-(3-(Difluoromethyl)-4-fluorophenyl)-3-methyl-1H-pyrazolo[4,3-b]pyridin-1-yl)butan-2-one]
0.61	CCC(=O)Cn1ncc2ncc(-c3cccc(C(F)(F)F)c3F)cc21 [Example 38, 1-[6-[2-Fluoro-3-(trifluoromethyl)phenyl]pyrazolo[4,3-b]pyridin-1-yl]butan-2-one]
0.63	CCC(=O)Cn1ncc2ncc(-c3cc(F)c(F)c(F)c3)cc21 [Example 42, 1-[6-(3,4,5-Trifluorophenyl)pyrazolo[4,3-b]pyridin-1-yl]butan-2-one]
0.43	O=C(Cn1ncc2ncc(-c3cccc(C(F)F)c3)cc21)C1CC1 [Example 61, 1-Cyclopropyl-2-[6-[3-(difluoromethyl)phenyl]pyrazolo[4,3-b]pyridin-1-yl]ethanone]
0.52	Cc1c(F)ccc(-c2cnc3cnn(CC(=O)C4CC4)c3c2)c1C [Example 78, 1-Cyclopropyl-2-[6-(4-fluoro-2,3-dimethyl-phenyl)pyrazolo[4,3-b]pyridin-1-yl]ethanone]
